Results published in ChEMBL document CHEMBL5352429, “Designed symmetrical β-hairpin peptides for treating multidrug-resistant salmonella typhimurium infections” (Eur J Med Chem, 2022).
≈ marks a conversion by molar mass, not a printed value. Calls of active or inactive are those of the source. The calls are words filed in the database; no cut-off is given here. Peptide text beside a SMILES is read from it.

Key:
[1] = system: Salmonella typhimurium; assay: Antibacterial activity against Salmonella typhimurium DT104 assessed as increase in ZO-2 mRNA level in colon at 20 mg/kg, ip administered for 3 days and measured on day 7 by RT-PCR analysis; type: functional, organism-based; conditions: Salmonella enterica subsp. enterica serovar Typhimurium, time 7.0 day
[2] = system: Cell membrane; assay: Induction of membrane damage in Salmonella typhimurium DT104 assessed as substantial damage to bacterial envelope at 1 times of MIC incubated for 60 mins by transmission electron microscopic analysis; type: subcellular; conditions: Salmonella enterica subsp. enterica serovar Typhimurium
[3] = system: Salmonella typhimurium; assay: Antibacterial activity against multi-drug resistant Salmonella typhimurium DT104 assessed as inhibition of bacterial growth at 0.5 to 2 times of MIC by MH agar based serial dilution method; type: functional, organism-based; conditions: Salmonella enterica subsp. enterica serovar Typhimurium, time <= 120.0 min, TDE = time-dependent effect
[4] = system: Cell membrane; assay: Induction of membrane damage in Salmonella typhimurium DT104 assessed as cytoplasmic outflow at 1 times of MIC incubated for 60 mins by transmission electron microscopic analysis; type: subcellular; conditions: Salmonella enterica subsp. enterica serovar Typhimurium
[5] = system: Salmonella typhimurium; assay: Antibacterial activity against Salmonella typhimurium DT104 assessed as reduction in IL-8 production in serum at 20 mg/kg, ip administered for 3 days and measured on day 7; type: functional, organism-based; conditions: Salmonella enterica subsp. enterica serovar Typhimurium, time 7.0 day
[6] = system: RAW264.7; assay: Anti-inflammatory activity in mouse RAW264.7 cells assessed as inhibition of LPS-induced IL-1beta mRNA expression at 15 ug/ml preincubated with compound for 30 mins followed by LPS stimulation and measured after 4 hrs by RT-PCR analysis; type: functional, cell-based; conditions: dose 15.0 µg/ml, time 4.5 hrs
[7] = system: Erythrocyte; assay: Hemolytic activity in human Red blood cells assessed as hemolysis incubated for 1 hrs by absorbance based microplate reader analysis; type: toxicity, cell-based
[8] = system: Cell membrane; assay: Induction of membrane damage in Salmonella typhimurium DT104 assessed as membrane stunting at 1 times of MIC incubated for 60 mins by atomic force microscopic analysis; type: subcellular; conditions: Salmonella enterica subsp. enterica serovar Typhimurium
[9] = system: Cell membrane; assay: Induction of membrane damage in Salmonella typhimurium DT104 assessed as cytoplasmic outflow at 1 times of MIC incubated for 15 mins by confocal laser scanning microscopic analysis; type: subcellular; conditions: Salmonella enterica subsp. enterica serovar Typhimurium
[10] = system: Salmonella typhimurium; assay: Antibacterial activity against Salmonella typhimurium DT104 assessed as reduction in IL-15 mRNA level in ileum at 20 mg/kg, ip administered for 3 days and measured on day 7 by RT-PCR analysis; type: functional, organism-based; conditions: Salmonella enterica subsp. enterica serovar Typhimurium, time 7.0 day
[11] = system: RAW264.7; assay: Anti-inflammatory activity in mouse RAW264.7 cells assessed as inhibition of LPS-induced IL-10 mRNA expression at 15 ug/ml preincubated with compound for 30 mins followed by LPS stimulation and measured after 4 hrs by RT-PCR analysis; type: functional, cell-based; conditions: dose 15.0 µg/ml, time 4.5 hrs
[12] = system: Salmonella typhimurium; assay: Antibacterial activity against Salmonella typhimurium DT104 assessed as reduction in IL-6 mRNA level in ileum at 20 mg/kg, ip administered for 3 days and measured on day 7 by RT-PCR analysis; type: functional, organism-based; conditions: Salmonella enterica subsp. enterica serovar Typhimurium, time 7.0 day
[13] = system: Salmonella typhimurium; assay: Antibacterial activity against Salmonella typhimurium DT104 infected in ICR mouse model assessed as reduction in bacterial translocation to spleen at 2 mg/kg, ip administered for 3 days and measured on day 7 by serial dilution method; type: functional, organism-based; conditions: Salmonella enterica subsp. enterica serovar Typhimurium, time 7.0 day
[14] = system: Salmonella typhimurium; assay: Antibacterial activity against Salmonella typhimurium DT104 infected in ICR mouse model at 2 mg/kg, ip administered for 3 days and measured on day 7; type: functional, organism-based; conditions: Salmonella enterica subsp. enterica serovar Typhimurium, time 7.0 day
[15] = system: RAW264.7; assay: Anti-inflammatory activity in mouse RAW264.7 cells assessed as inhibition of LPS-induced IL-8 mRNA expression at 15 ug/ml preincubated with compound for 30 mins followed by LPS stimulation and measured after 4 hrs by RT-PCR analysis; type: functional, cell-based; conditions: dose 15.0 µg/ml, time 4.5 hrs
[16] = system: Salmonella typhimurium; assay: Antibacterial activity against Salmonella typhimurium DT104 assessed as reduction in TNF-alpha production in serum at 20 mg/kg, ip administered for 3 days and measured on day 7; type: functional, organism-based; conditions: Salmonella enterica subsp. enterica serovar Typhimurium, time 7.0 day
[17] = system: Cell membrane; assay: Induction of membrane damage in Salmonella typhimurium DT104 assessed as membrane devastation at 1 times of MIC incubated for 60 mins by atomic force microscopic analysis; type: subcellular; conditions: Salmonella enterica subsp. enterica serovar Typhimurium
[18] = Antibacterial activity against Salmonella blockley CICC 21489 incubated overnight by standard microtiter dilution method; type: functional, Salmonella enterica subsp. enterica serovar Blockley; conditions: Salmonella enterica
[19] = system: Salmonella typhimurium; assay: Antibacterial activity against Salmonella typhimurium DT104 in the presence of NH4Cl by MH broth based assay; type: functional, Salmonella enterica subsp. enterica serovar Typhimurium; conditions: Salmonella enterica
[20] = system: Salmonella enterica subsp. enterica serovar Paratyphi B; assay: Antibacterial activity against Salmonella paratyphi B CICC 21495 incubated overnight by standard microtiter dilution method; type: functional
[21] = system: Salmonella typhimurium; assay: Antibacterial activity against Salmonella typhimurium DT104 in the presence 50% inactivated mouse serum by MH broth based assay; type: functional, Salmonella enterica subsp. enterica serovar Typhimurium; conditions: Salmonella enterica
[22] = system: Salmonella typhimurium; assay: Antibacterial activity against Salmonella typhimurium CICC 21483 incubated overnight by standard microtiter dilution method; type: functional, Salmonella enterica subsp. enterica serovar Typhimurium; conditions: Salmonella enterica
[23] = system: RAW264.7; assay: Inhibition of LPS-stimulated IL-8 production in mouse RAW264.7 cells at 1 to 128 ug/ml incubated for 24 hrs by ELISA analysis; type: functional, cell-based; conditions: dose 1-128 µg/ml
[24] = system: Salmonella typhimurium; assay: Antibacterial activity against Salmonella typhimurium DT104 in the presence of NaCl by MH broth based assay; type: functional, Salmonella enterica subsp. enterica serovar Typhimurium; conditions: Salmonella enterica
[25] = system: Salmonella typhimurium; assay: Antibacterial activity against Salmonella typhimurium CICC 21913 incubated overnight by standard microtiter dilution method; type: functional, Salmonella enterica subsp. enterica serovar Typhimurium; conditions: Salmonella enterica
[26] = system: Salmonella typhimurium; assay: Antibacterial activity against multi-drug resistant Salmonella typhimurium DT104 assessed as inhibition of bacterial growth measured upto 120 mins by MH agar based serial dilution method; type: functional, organism-based; conditions: Salmonella enterica subsp. enterica serovar Typhimurium
[27] = system: Salmonella typhimurium; assay: Antibacterial activity against Salmonella typhimurium DT104 in the presence of KCl by MH broth based assay; type: functional, Salmonella enterica subsp. enterica serovar Typhimurium; conditions: Salmonella enterica
[28] = system: Salmonella typhimurium; assay: Antibacterial activity against Salmonella typhimurium DT104 assessed as reduction in IL-1beta production in serum at 20 mg/kg, ip administered for 3 days and measured on day 7; type: functional, organism-based; conditions: Salmonella enterica subsp. enterica serovar Typhimurium, time 7.0 day
[29] = system: RAW264.7; assay: Inhibition of LPS-stimulated NO production in mouse RAW264.7 cells incubated for 24 hrs by Griess reagent based analysis; type: functional, cell-based; conditions: dose 1-128 µg/ml
[30] = system: Escherichia coli; assay: Antibacterial activity against Escherichia coli O157:H7 CICC 21530 incubated overnight by standard microtiter dilution method; type: functional
[31] = system: Cell membrane; assay: Disruption of membrane integrity in Salmonella typhimurium DT104 assessed as increase in red fluorescence at 1 times of MIC incubated for 60 mins by PI and SYTO9 staining based confocal laser scanning microscopic analysis; type: subcellular; conditions: Salmonella enterica subsp. enterica serovar Typhimurium
[32] = system: Salmonella typhimurium; assay: Antibacterial activity against Salmonella typhimurium DT104 assessed as reduction in IL-1beta mRNA level in ileum at 20 mg/kg, ip administered for 3 days and measured on day 7 by RT-PCR analysis; type: functional, organism-based; conditions: Salmonella enterica subsp. enterica serovar Typhimurium, time 7.0 day
[33] = system: Salmonella typhimurium; assay: Antibacterial activity against Salmonella typhimurium DT104 infected in ICR mouse model assessed as alleviation of intestinal mucosal damage at 20 mg/kg, ip administered for 3 days and measured on day 7 by H&E staining based analysis; type: functional, organism-based; conditions: Salmonella enterica subsp. enterica serovar Typhimurium, time 7.0 day
[34] = system: Staphylococcus epidermidis; assay: Antibacterial activity against methicillin-resistant Staphylococcus epidermidis ATCC 12228 incubated overnight by standard microtiter dilution method; type: functional
[35] = Antibacterial activity against Salmonella dublin CICC 21497 incubated overnight by standard microtiter dilution method; type: functional, Salmonella enterica subsp. enterica serovar Dublin; conditions: Salmonella enterica
[36] = system: Salmonella typhimurium; assay: Antibacterial activity against Salmonella typhimurium DT104 assessed as increase in occludin mRNA level in colon at 20 mg/kg, ip administered for 3 days and measured on day 7 by RT-PCR analysis; type: functional, organism-based; conditions: Salmonella enterica subsp. enterica serovar Typhimurium, time 7.0 day

SMILES: C[C@@H](O)[C@H](NC(=O)[C@H](CS)NC(=O)[C@H](CCCCN)NC(=O)[C@H](Cc1c[nH]c2ccccc12)NC(=O)[C@H](CCCCN)NC(=O)[C@@H](N)Cc1c[nH]c2ccccc12)C(=O)N[C@@H](CCCCN)C(=O)N[C@@H](CO)C(=O)NCC(=O)N[C@@H](CS)C(=O)N[C@@H](CCCCN)C(=O)N[C@@H](Cc1c[nH]c2ccccc12)C(=O)N[C@@H](CCCCN)C(=O)N[C@@H](Cc1c[nH]c2ccccc12)C(N)=O (H-WKWKCTKSGCKWKW-NH2)
- Activity [1]: Active
- Activity [2]: Active
- Activity [3]: Tde
- Activity [4]: Active
- Activity [5]: Active
- inhibition [6]: Active
- MHC [7]: > 128 µg/mL
- Activity [8]: Active
- Activity [9]: Active
- Activity [10]: Active
- inhibition [11]: Active
- Activity [12]: Active
- Activity [13]: Active
- Activity [14]: Active
- inhibition [15]: Active
- Activity [16]: Active
- Activity [17]: Active
- MIC [18]: 8 µg/mL (≈ 4.31 µM)
- MIC [19]: 4 µg/mL
- MIC [20]: 1 µg/mL (≈ 0.539 µM)
- MIC [21]: 32 µg/mL (≈ 17.3 µM)
- MIC [22]: 4 µg/mL (≈ 2.16 µM)
- inhibition [23]: Active
- MIC [24]: 4 µg/mL
- MIC [25]: 8 µg/mL (≈ 4.31 µM)
- Activity [26]: Dose-Dependent Effect
- MIC [27]: 8 µg/mL
- Activity [28]: Active
- inhibition [29]: Dose-Dependent Effect
- MIC [30]: 4 µg/mL (≈ 2.16 µM)
- Activity [31]: Active
- Activity [32]: Active
- Activity [33]: Active
- MIC [34]: 4 µg/mL (≈ 2.16 µM)
- MIC [35]: 8 µg/mL (≈ 4.31 µM)
- Activity [36]: Active
